According to US20230078764A1 (Yumanity Therapeutics, Inc., priority 2019, published 2023):
Like-named read-outs stand apart in the source and are kept apart here.

Experiments:
human SCD1 = molecular target: T1, human SCD1 (Homo sapiens, UniProt O00767); experiment: Growth inhibition of yeast strain expressing human SCD1 as sole desaturase (OLE1 deleted), OD600 readout; format: cell-based; settings: yeast strain expressing human SCD1 as sole desaturase; growth (OD600) after 40 h at 30° C.; read-out: SCD1 IC50
T1 construct: expressed in transfected cells; host or cells: yeast strain with OLE1 deleted, plasmid-borne human SCD1 (selected in SD-Ura)
T1 sequence (O00767 1-359): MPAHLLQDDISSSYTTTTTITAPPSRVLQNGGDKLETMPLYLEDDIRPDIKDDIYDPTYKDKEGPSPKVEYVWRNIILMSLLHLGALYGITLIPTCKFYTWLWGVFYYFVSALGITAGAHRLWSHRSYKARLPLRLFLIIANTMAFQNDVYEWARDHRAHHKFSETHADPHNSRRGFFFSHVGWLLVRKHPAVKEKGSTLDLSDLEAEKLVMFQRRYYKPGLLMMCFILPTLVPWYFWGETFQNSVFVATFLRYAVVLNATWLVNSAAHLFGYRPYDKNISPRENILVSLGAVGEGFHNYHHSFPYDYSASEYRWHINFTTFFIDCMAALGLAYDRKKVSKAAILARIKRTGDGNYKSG

human SCD5 = molecular target: T2, human SCD5 (Homo sapiens, UniProt Q86SK9); experiment: Growth inhibition of yeast strain expressing human SCD5 as sole desaturase (OLE1 deleted), OD600 readout; format: cell-based
T2 construct: expressed in transfected cells; host or cells: yeast strain with OLE1 deleted, plasmid-borne human SCD5 (selected in SD-Ura)
T2 sequence (Q86SK9 1-330): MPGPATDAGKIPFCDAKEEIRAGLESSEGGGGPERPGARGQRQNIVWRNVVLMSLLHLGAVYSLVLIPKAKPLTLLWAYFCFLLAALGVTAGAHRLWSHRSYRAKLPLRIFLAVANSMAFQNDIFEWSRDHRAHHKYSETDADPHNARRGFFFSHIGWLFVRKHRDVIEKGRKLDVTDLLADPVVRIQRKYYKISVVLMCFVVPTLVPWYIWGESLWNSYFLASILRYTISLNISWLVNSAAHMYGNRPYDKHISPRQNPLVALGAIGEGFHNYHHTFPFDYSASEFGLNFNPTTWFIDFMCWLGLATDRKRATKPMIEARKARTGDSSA

[1] = yeast strain expressing human SCD5 as sole desaturase, growth (OD600) after 40 h at 30° C., read-out: SCD5 IC50

Compound	IC50 (human SCD1) [nM]	IC50 (human SCD5; [1]) [nM]	IC50 (human SCD5; SCD5 IC50) [nM]
Cn1cc(C(=O)Nc2ccc(Oc3ccc(F)c(Cl)c3)cn2)ccc1=O [Compound 167, N-[5-(3-chloro-4-fluorophenoxy)pyridin-2-yl]-1-methyl-6-oxo-1,6-dihydropyridine-3-carboxamide]	25900	930	
Cc1nccc(NC(=O)c2ccc(Cc3cccc(F)c3)cn2)n1 [Compound 115, 5-(3-Fluorobenzyl)-N-(2-methylpyrimidin-4-yl)picolinamide]	> 45000	50	
Cn1cc(C(=O)Nc2ccc(COc3ccc(F)c(Cl)c3)cn2)ccc1=O [Compound 266]	1850	400	
COCc1ncc(C(=O)Nc2ccc(Cc3cccc(Cl)c3)cn2)c(OC)n1 [Compound 110, N-(5-(3-chlorobenzyl)pyridin-2-yl)-4-methoxy-2-(methoxymethyl)pyrimidine-5-carboxamide]	3940	220	
Cn1ccc(C(=O)Nc2ccc(Cc3ccc(F)c(F)c3)cn2)n1 [Compound 92, N-(5-(3,4-difluorobenzyl)pyridin-2-yl)-1-methyl-1H-pyrazole-3-carboxamide]	110	20	
CN1N=C(C(=O)Nc2ccc(COc3cccc(Cl)c3)nn2)CCC1=O [Compound 181, N-(6-((3-chlorophenoxy)methyl)pyridazin-3-yl)-1-methyl-6-oxo-1,4,5,6-tetrahydropyridazine-3-carboxamide]	> 45000	1220	
CCn1nc(C(=O)Nc2ccc(Cc3cccc(F)c3)cn2)ccc1=O [Compound 68, 1-ethyl-N-(5-(3-fluorobenzyl)pyridin-2-yl)-6-oxo-1,6-dihydropyridazine-3-carboxamide]	1650	260	
Cn1nc(C(=O)Nc2ccc(Cc3cccc(F)c3)cn2)cc1O [Compound 106, N-(5-(3-fluorobenzyl)pyridin-2-yl)-5-hydroxy-1-methyl-1H-pyrazole-3-carboxamide]	> 45000	1240	
CN1N=C(C(=O)Nc2ccc(OCc3cc(F)cc(C#N)c3)cn2)CCC1=O [Compound 270]	> 45000	6880	
CN1N=C(C(=O)Nc2ccc(Cc3ccc(F)c(Cl)c3)nn2)CCC1=O [Compound 192, N-(6-(3-chloro-4-fluorobenzyl)pyridazin-3-yl)-1-methyl-6-oxo-1,4,5,6-tetrahydropyridazine-3-carboxamide]	11900	1310	
CCn1ccc(C(=O)Nc2ccc(Cc3cc(F)cc(Cl)c3)cn2)n1 [Compound 99, N-(5-(3-chloro-5-fluorobenzyl)pyridin-2-yl)-1-ethyl-1H-pyrazole-3-carboxamide]	140	10	
COc1ccc(Cc2ccc(NC(=O)c3ccc(=O)n(C)c3)nc2)cn1 [Compound 58, N-(5-((6-methoxypyridin-3-yl)methyl)pyridin-2-yl)-1-methyl-6-oxo-1,6-dihydropyridine-3-carboxamide]	> 45000		35600
Cn1cc(C(=O)Nc2ccc(Cc3cccc(Cl)c3)nn2)ccc1=O [Compound 183, N-(6-(3-chlorobenzyl)pyridazin-3-yl)-1-methyl-6-oxo-1,6-dihydropyridine-3-carboxamide]	10700	1410	
Cn1cc(C(=O)Nc2ccc(Cc3cccc(Cl)c3)cn2)cc(F)c1=O [Compound 128, N-(5-(3-chlorobenzyl)pyridin-2-yl)-5-fluoro-1-methyl-6-oxo-1,6-dihydropyridine-3-carboxamide]	180	10	
O=C(Nc1ccc(Cc2cccc(F)c2)cn1)c1ccc(=O)n(C2CC2)n1 [Compound 75, 1-cyclopropyl-N-(5-(3-fluorobenzyl)pyridin-2-yl)-6-oxo-1,6-dihydropyridazine-3-carboxamide]	1490	10	
N#Cc1ccc(C(=O)Nc2ccc(Cc3cccc(Cl)c3)cn2)nc1 [Compound 129, N-(5-(3-chlorobenzyl)pyridin-2-yl)-5-cyanopicolinamide]	> 45000	50	
CCn1cc(C(=O)Nc2ccc(COc3cccc(Cl)c3)cn2)ccc1=O [Compound 264]	> 45000	8840	
Cn1nc(C(=O)Nc2ccc(Cc3cc(F)cc(F)c3)cn2)ccc1=O [Example 37, N-(5-(3,5-difluorobenzyl)pyridin-2-yl)-1-methyl-6-oxo-1,6-dihydropyridazine-3-carboxamide]	10200	50	
Cn1nc(C(=O)Nc2ncc(Cc3cccc(Cl)c3)s2)ccc1=O [Compound 236, N-(5-(3-chlorobenzyl)thiazol-2-yl)-1-methyl-6-oxo-1,6-dihydropyridazine-3-carboxamide]	10	10	
Cc1cnc(C(=O)Nc2ccc(Cc3cccc(F)c3)cn2)nc1 [Compound 139, N-(5-(3-fluorobenzyl)pyridin-2-yl)-5-methylpyrimidine-2-carboxamide]	4930	60	
Cn1nc(C(=O)Nc2ccc(Oc3cccc(Cl)c3)cn2)ccc1=O [Compound 163, N-[5-(3-chlorophenoxy)pyridin-2-yl]-1-methyl-6-oxo-1,6-dihydropyridazine-3-carboxamide]	> 45000	240	
Cc1cc(C(=O)Nc2ccc(Cc3cccc(F)c3)cn2)no1 [Compound 107, N-(5-(3-fluorobenzyl)pyridin-2-yl)-5-methylisoxazole-3-carboxamide]	> 45000	1060	

More lines, main results first:

IC50 (human SCD1) [nM]	IC50 (human SCD5; [1]) [nM]	Compound	IC50 (human SCD5; SCD5 IC50) [nM]
250	22	Cn1nc(C(=O)Nc2ccc(Cc3cccc(F)c3)cn2)cc1CO [Compound 560]	
> 45000	770	O=C(Nc1ccc(Cc2cccc(F)c2)cn1)c1ccn(C(F)(F)F)n1 [Compound 372]	
880	220	C[C@H](O)c1ccc(C(=O)Nc2ccc(Cc3cccc(Cl)c3)cn2)cn1 [Compound 519]	
3600	290	N#Cc1cc(F)cc(Cc2ccc(NC(=O)c3ccnc(Cl)n3)nc2)c1 [Compound 666]	
143	190	CC(O)c1ccc(C(=O)Nc2ccc(Cc3ccc(F)c(F)c3)cn2)nc1 (centres unmarked) [Compound 511]	
> 45000	79	Cn1nc(C(=O)Nc2ccc(COc3ccccc3Cl)cn2)ccc1=O [Compound 615]	
220	39	Cn1cc(C(=O)Nc2ccc(Cc3ccc(Cl)c(C#N)c3)cn2)ccc1=O [Compound 617]	
39900	2030	Cn1nc(C(=O)Nc2ccc(Cc3cc(C(F)(F)F)ccn3)cn2)ccc1=O [Compound 278]	
130	20	Cn1nc(C(=O)Nc2ccc(Cc3cccc(F)c3)cn2)cc(Br)c1=O [Compound 280]	
> 45000	14000	Cn1nc(C(=O)NC2CCC(Oc3cccc(Cl)c3)CC2)ccc1=O (centres unmarked) [Compound 369]	
540	160	CCn1cc(C(=O)Nc2ccc(Cc3cccc(F)c3)cn2)cn1 [Compound 355]	
25800	4000	O=C(Nc1ccc(COc2ccc(F)c(Cl)c2)cn1)c1ccc(=O)n(C2CC2)c1 [Compound 365]	
10	10	O=C(Nc1ccc(Cc2cccc(Cl)c2)cn1)c1cnc(CO)nc1 [Compound 494]	
28000	150	Cc1cc(C(=O)Nc2ccc(Cc3cc(F)cc(F)c3)cn2)cnc1Cl [Compound 619]	
170	56	O=C(Nc1ccc(Cc2ccc(F)c(F)c2)cn1)c1ccncc1 [Compound 650]	
1170	570	Cn1nc(OC(=O)N2CCC(Oc3cccc(Cl)c3)CC2)ccc1=O [Compound 307]	
> 45000	890	N#Cc1cnc(C(=O)Nc2ccc(Cc3ccc(F)c(F)c3)cn2)nc1 [Compound 549]	
1600	180	Cn1cc(C(=O)Nc2ccc(Cc3ccc(F)cc3F)cn2)ccc1=O [Compound 538]	
> 45000	> 45000	CCn1cc(C(=O)Nc2ccc(Cc3ccc(F)cc3)nn2)ccc1=O [Compound 379]	
18700	3270	Cn1cc(-c2cnc(NC(=O)Cc3cccc(F)c3)cn2)ccc1=O [Compound 359]	
> 45000	> 45000	O=C(Nc1ncc(Cc2cccc(F)c2)s1)C1=NN(CCF)C(=O)CC1 [Compound 386]	
> 45000	70	O=C(Nc1ccc(Cc2cccc(F)c2)cn1)c1csc(Br)n1 [Compound 632]	
10	10	O=C(Nc1ccc(Cc2cc(F)cc(F)c2)cn1)c1cnnc(Cl)c1 [Compound 657]	
910	27	N#Cc1ncc(C(=O)Nc2ccc(Cc3cc(F)cc(F)c3)cn2)cc1Cl [Compound 608]	
